In ChEMBL document CHEMBL3108693, “Design, synthesis, and osteogenic activity of daidzein analogs on human mesenchymal stem cells” (2014):
Activity calls are given as the source filed them. No cut-off for these calls is given here.

Columns and labels:
Assay type in all cases: functional
MSC [1] = experiment: Induction of osteogenic activity in human MSC assessed as cell differentiation at 10 nM after 14 days by alizarin red staining-based spectrometry
[2] = (§1) Induction of osteogenic activity in human MSC assessed as cell differentiation at 1 uM after 14 days by alizarin red staining-based spectrometry relative to vehicle-treated control
MSC [3] = experiment: Induction of osteogenic activity in human MSC assessed as cell differentiation after 14 days by alizarin red staining-based spectrometry relative to vehicle-treated control
MSC [4] = experiment: Induction of osteogenic activity in human MSC assessed as cell differentiation at 1 uM after 7 days by alizarin red staining-based spectrometry relative to vehicle-treated control
MSC [5] = experiment: Induction of osteogenic activity in human MSC assessed as increase in ALP level at 1 uM after 14 days by quantitative RT-PCR analysis relative to control
MSC [6] = experiment: Induction of osteogenic activity in human MSC assessed as increase in Cola1 level at 1 uM after 14 days by quantitative RT-PCR analysis relative to control
MSC [7] = experiment: Induction of osteogenic activity in human MSC assessed as increase in ON level at 1 uM after 14 days by quantitative RT-PCR analysis relative to control
MSC [8] = experiment: Induction of osteogenic activity in human MSC assessed as increase in cFOS level at 1 uM after 14 days by quantitative RT-PCR analysis relative to control
MSC [9] = experiment: Induction of osteogenic activity in human MSC assessed as increase in IGF1 level at 1 uM after 14 days by quantitative RT-PCR analysis relative to control
MSC [10] = experiment: Induction of osteogenic activity in human MSC assessed as increase in OP level at 1 uM after 14 days by quantitative RT-PCR analysis relative to control
MSC [11] = experiment: Induction of osteogenic activity in human MSC assessed as increase in Dlx5 level at 1 uM after 14 days by quantitative RT-PCR analysis relative to control
MSC [12] = experiment: Induction of osteogenic activity in human MSC assessed as increase in cbfa1 level at 1 uM after 14 days by quantitative RT-PCR analysis relative to control
MSC [13] = experiment: Induction of osteogenic activity in human MSC assessed as increase in Sp7 level at 1 uM after 14 days by quantitative RT-PCR analysis relative to control
MSC [14] = experiment: as §1

SMILES | fold change (FC) [2] | Activity (MSC [3]) | further results
CC#C[C@]1(O)CC[C@H]2[C@@H]3CCc4cc(O)ccc4[C@H]3CC[C@@]21C |  |  | Activity (MSC [1]): Active
CC1(C)C=Cc2cc3c(cc2O1)OCC(c1ccc(O)cc1)C3 (centres undefined) | 1.3 | Dose-dependent effect | 
O=c1c(-c2ccc(O)cc2)coc2cc(OC3CCCC3)ccc12 | 1.3 | Dose-dependent effect | Activity (MSC [4]): Active
C#CCOc1ccc2c(=O)c(-c3ccc(O)cc3)coc2c1 | 1.6 | Dose-dependent effect | 
CC1(C)C=Cc2c(ccc3c(=O)c(-c4ccc(O)cc4)coc23)O1 |  | Dose-dependent effect | 
COc1ccc(C(=O)Nc2ccc(OCC(C)C)cc2)c(OC)c1 | 1.6 | Dose-dependent effect | 
CC(C)Oc1ccc2c(=O)c(-c3ccc(O)cc3)coc2c1 | 1.6 | Dose-dependent effect | 
CCCCOc1ccc2c(c1)OCC(c1ccc(O)cc1)C2 (centres undefined) |  | Dose-dependent effect | 
CC1(C)CCc2c(ccc3c2OCC(c2ccc(O)cc2)C3=O)O1 (centres undefined) | 1.6 | Dose-dependent effect | 
CCOc1ccc2c(=O)c(-c3ccc(O)cc3)coc2c1 | 1.6 | Dose-dependent effect | 
CC1(C)C=Cc2c(ccc3c(=O)c(-c4ccc(B5OC(C)(C)C(C)(C)O5)cc4)coc23)O1 |  | Dose-dependent effect | 
COc1ccc(NC(=O)c2ccc(OC)cc2OC)cc1 | 1.3 | Dose-dependent effect | 
O=c1c(-c2ccc(O)cc2)coc2cc(OCCN3CCCCC3)ccc12 | >2.4 | Dose-dependent effect | 
CCCOc1ccc2c(=O)c(-c3ccc(O)cc3)coc2c1 | 1.3 | Dose-dependent effect | Activity (MSC [5]): Active; Activity (MSC [6]): Active; Activity (MSC [7]): inactive; Activity (MSC [8]): inactive; Activity (MSC [9]): Active; Activity (MSC [10]): Active; Activity (MSC [11]): inactive; Activity (MSC [12]): inactive; Activity (MSC [13]): Active; Activity (MSC [4]): Active
CC(C)COc1ccc2c(=O)c(-c3ccc(O)cc3)coc2c1 | 1.3 | Dose-dependent effect | Activity (MSC [4]): Active
CN(C)CCOc1ccc2c(=O)c(-c3ccc(O)cc3)coc2c1 |  | Dose-dependent effect | 
C=CCOc1ccc2c(=O)c(-c3ccc(O)cc3)coc2c1 | 1.3 | Dose-dependent effect | Activity (MSC [4]): Active
COc1ccc(C(=O)Nc2ccc(O)cc2)c(OC)c1 | 1.3 | Dose-dependent effect | 
Cc1cc2c(ccc3c(=O)c(-c4ccc(O)cc4)coc32)o1 | 1.6 | Dose-dependent effect | 
O=c1c(-c2ccc(O)cc2)coc2cc(OCCN3CCCC3)ccc12 |  | Dose-dependent effect | 
CCCCCCOc1ccc2c(=O)c(-c3ccc(O)cc3)coc2c1 | 1.3 | Dose-dependent effect | 
O=c1c(-c2ccc(O)cc2)coc2cc(O)ccc12 |  | Dose-dependent effect | Activity (MSC [14]): Active
CC1(C)CCc2c(ccc3c2OCC(c2ccc(O)cc2)C3)O1 (centres undefined) |  | Dose-dependent effect | 
CCCCOc1ccc2c(=O)c(-c3ccc(O)cc3)coc2c1 | 1.3 | Dose-dependent effect | 
